Reference: patent US20200030355A1, “COMBINATION THERAPY FOR TREATING CANCER” (Epizyme, Inc., priority 2014, published 2020)
Counter-ions that a name gives are not always drawn.

system: MOLM-13 cells; experiment: EPZ-5676 300 nM 7-day pre-treatment, then second compound 72 hours, ATPLite, IC50 shift (Example 6); assay type: cell-based, human; settings: 300 nM EPZ-5676 or DMSO 7-day pre-treatment, then 2nd compound 72 hours, Synergy = IC50 of 2nd compound decreased by 2-fold or more vs DMSO control
Experimental: Cells were then equilibrated in incubators for 24 hours before treatment with a second compound. Treated assay plates were incubated with a second compound for 72 hours. After this time, plates were developed for endpoint analysis using ATPLite to measure ATP content, which is used as an indicator of cell viability.
“N/D” means that IC50 of the second compound could not be determined for both conditions.

Compound | MOLM-13 (summary of combination study: EPZ-5676 + 2nd compound)
Clc1ccc(C2(c3ccc(-c4cn[nH]c4)cc3)CCNCC2)cc1 [AT7867] | Synergy (considered synergistic if the IC50 value of the second compound decreased by 2-fold or more when EPZ-5676 was added as compared to the DMSO control)
CC1=C(/C=C/C(C)=C\C=C\C(C)=C\C(=O)O)C(C)(C)CCC1 [Alitretinoin] | Synergy (considered synergistic if the IC50 value of the second compound decreased by 2-fold or more when EPZ-5676 was added as compared to the DMSO control)
CC(=O)OC[C@H]1O[C@@H]([S-])[C@H](OC(C)=O)[C@@H](OC(C)=O)[C@@H]1OC(C)=O.CCP(CC)CC.[Au+] [Auranofin] | Synergy (considered synergistic if the IC50 value of the second compound decreased by 2-fold or more when EPZ-5676 was added as compared to the DMSO control)
Cc1cc(Cl)cc(OCCn2cc(F)cn2)c1-c1nc(N)nc2c1CN(C(=O)NCC(C)(F)F)C2 [BEP800] | Synergy (considered synergistic if the IC50 value of the second compound decreased by 2-fold or more when EPZ-5676 was added as compared to the DMSO control)
COc1cc2nc(N3CCCN(C)CC3)nc(NC3CCN(Cc4ccccc4)CC3)c2cc1OC [BIX01294] | Synergy (considered synergistic if the IC50 value of the second compound decreased by 2-fold or more when EPZ-5676 was added as compared to the DMSO control)
Cn1ncnc1[C@H]1c2n[nH]c(=O)c3cc(F)cc(c23)N[C@@H]1c1ccc(F)cc1 [BMN 673] | Synergy (considered synergistic if the IC50 value of the second compound decreased by 2-fold or more when EPZ-5676 was added as compared to the DMSO control)
Cc1ccc2nc(NCCN)c3ncc(C)n3c2c1 [BMS 345541] | Synergy (considered synergistic if the IC50 value of the second compound decreased by 2-fold or more when EPZ-5676 was added as compared to the DMSO control)
C[C@@]1(C(=O)Nc2ccc(F)nc2)CCCN1c1nc(Nc2cc(C3CC3)n[nH]2)c2cccn2n1 [BMS-754807] | Synergy (considered synergistic if the IC50 value of the second compound decreased by 2-fold or more when EPZ-5676 was added as compared to the DMSO control)
CCS(=O)(=O)N1CC(CC#N)(n2cc(-c3ncnc4[nH]ccc34)cn2)C1 [Baricitinib] | Synergy (considered synergistic if the IC50 value of the second compound decreased by 2-fold or more when EPZ-5676 was added as compared to the DMSO control)
CC[C@H](Nc1ncnc2[nH]cnc12)c1nc2cccc(F)c2c(=O)n1-c1ccccc1 [CAL-101] | Synergy (considered synergistic if the IC50 value of the second compound decreased by 2-fold or more when EPZ-5676 was added as compared to the DMSO control)
N.N.[Cl][Pt][Cl] [Cisplatin] | Synergy (considered synergistic if the IC50 value of the second compound decreased by 2-fold or more when EPZ-5676 was added as compared to the DMSO control)
CC(C)(C)c1nc(-c2cccc(NS(=O)(=O)c3c(F)cccc3F)c2F)c(-c2ccnc(N)n2)s1 [Dabrafenib] | Synergy (considered synergistic if the IC50 value of the second compound decreased by 2-fold or more when EPZ-5676 was added as compared to the DMSO control)
COc1cc([C@@H]2c3cc4c(cc3[C@@H](O[C@@H]3O[C@@H]5CO[C@@H](C)O[C@H]5[C@H](O)[C@H]3O)[C@H]3COC(=O)[C@H]23)OCO4)cc(OC)c1O [Etoposide] | Synergy (considered synergistic if the IC50 value of the second compound decreased by 2-fold or more when EPZ-5676 was added as compared to the DMSO control)
CO[C@H]1C[C@@H]2CC[C@@H](C)[C@@](O)(O2)C(=O)C(=O)N2CCCC[C@H]2C(=O)O[C@H]([C@H](C)C[C@@H]2CC[C@@H](OCCO)[C@H](OC)C2)CC(=O)[C@H](C)/C=C(\C)[C@@H](O)[C@@H](OC)C(=O)[C@H](C)C[C@H](C)/C=C/C=C/C=C/1C [Everolimus] | Synergy (considered synergistic if the IC50 value of the second compound decreased by 2-fold or more when EPZ-5676 was added as compared to the DMSO control)
COc1cc(Nc2ncc(F)c(Nc3ccc4c(n3)N(COP(=O)(O)O)C(=O)C(C)(C)O4)n2)cc(OC)c1OC [Fostamatinib disodium] | Synergy (considered synergistic if the IC50 value of the second compound decreased by 2-fold or more when EPZ-5676 was added as compared to the DMSO control)
Cc1cccc(CC(=O)N2CCc3c2ccc(-c2cn(C)c4ncnc(N)c24)c3F)n1 [GSK2656157] | Synergy (considered synergistic if the IC50 value of the second compound decreased by 2-fold or more when EPZ-5676 was added as compared to the DMSO control)
c1ccc([C@@H]2C[C@H]2NC2CCNCC2)cc1 [GSK-LSD1] | Synergy (considered synergistic if the IC50 value of the second compound decreased by 2-fold or more when EPZ-5676 was added as compared to the DMSO control)
Cn1c2ccccc2c2c3c(c4c5ccccc5n(CCC#N)c4c21)CNC3=O [Go 6976] | Synergy (considered synergistic if the IC50 value of the second compound decreased by 2-fold or more when EPZ-5676 was added as compared to the DMSO control)
CCc1c2c(nc3ccc(OC(=O)N4CCC(N5CCCCC5)CC4)cc13)-c1cc3c(c(=O)n1C2)COC(=O)[C@]3(O)CC [Irinotecan Hydrochloride] | Synergy (considered synergistic if the IC50 value of the second compound decreased by 2-fold or more when EPZ-5676 was added as compared to the DMSO control)
c1ccc2c(CCNc3ccc(Nc4ccncc4)cc3)c[nH]c2c1 [JNJ 26854165] | Synergy (considered synergistic if the IC50 value of the second compound decreased by 2-fold or more when EPZ-5676 was added as compared to the DMSO control)
CC(=O)O/N=C1\C(=O)N(Cc2cc(Cl)ccc2Cl)c2ccc(Cl)cc21 [LDN 57444] | Synergy (considered synergistic if the IC50 value of the second compound decreased by 2-fold or more when EPZ-5676 was added as compared to the DMSO control)
Cc1cnc(NC(=O)Nc2cc(Br)c(C)cc2OC[C@@H]2CNCCO2)cn1 [LY2603618] | Synergy (considered synergistic if the IC50 value of the second compound decreased by 2-fold or more when EPZ-5676 was added as compared to the DMSO control)
CS(=O)(=O)CCNCc1ccc(-c2ccc3ncnc(Nc4ccc(OCc5cccc(F)c5)c(Cl)c4)c3c2)o1 [Lapatinib] | Synergy (considered synergistic if the IC50 value of the second compound decreased by 2-fold or more when EPZ-5676 was added as compared to the DMSO control)
Cc1cc(/N=N/c2ccc(S(=O)(=O)Nc3ccccn3)cc2)c(N)cc1O [MS 436] | Synergy (considered synergistic if the IC50 value of the second compound decreased by 2-fold or more when EPZ-5676 was added as compared to the DMSO control)
